The target of this assay is T1, human M1 receptor (hCHRM1) (Homo sapiens, UniProt P11229).
T1 construct: expressed in transfected cells
T1 sequence (P11229 1-460): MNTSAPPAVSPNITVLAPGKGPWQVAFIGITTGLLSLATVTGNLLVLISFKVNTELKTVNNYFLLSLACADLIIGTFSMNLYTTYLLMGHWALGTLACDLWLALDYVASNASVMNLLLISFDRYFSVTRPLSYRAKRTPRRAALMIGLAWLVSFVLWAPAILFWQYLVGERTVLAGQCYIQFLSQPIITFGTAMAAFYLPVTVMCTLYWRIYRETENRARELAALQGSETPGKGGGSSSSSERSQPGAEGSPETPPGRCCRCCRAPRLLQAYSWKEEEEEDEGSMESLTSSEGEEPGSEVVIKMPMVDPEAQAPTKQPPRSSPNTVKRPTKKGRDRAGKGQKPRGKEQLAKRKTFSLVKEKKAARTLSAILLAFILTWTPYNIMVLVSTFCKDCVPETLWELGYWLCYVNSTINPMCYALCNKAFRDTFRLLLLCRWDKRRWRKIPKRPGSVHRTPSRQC
In words: Measurement of M1 receptor positive allosteric modulator (M1PAM) activity, calcium fluorescence (FLIPRtetra) with acetylcholine at EC20. In kind it is cell-based. To be noted: for activity (%) at 10 μM: 10 μM test compound, 100% = acetylcholine 1 μM, 0% = DMSO, acetylcholine at EC20; for EC50: inflection point of concentration-dependent curve, CHO-K1 cells expressing hCHRM1, acetylcholine at EC20 (final 0.6-0.8 nM), read-out: IP value. The method, then:
The activity of a test compound in the presence of acetylcholine at EC20 concentration (final concentration 0.6-0.8 nM), which affords an action corresponding to about 20% of the maximum activity, was measured as PAM activity. The method is as follows. CHO-K1 cells stably expressing a human M1 receptor (hCHRM1) were plated on a 384-well black clear bottom plate (BD Falcon) at 5,000 cells/well, and cultured in an incubator at 37° C., 5% CO2 for 1 day. The medium in the cell plate was removed, and assay buffer A (Recording medium (DOJINDO LABORATORIES), 0.1% BSA (Wako Pure Chemical Industries, Ltd.), 2.5 μg/mL Fluo-4 AM (DOJINDO LABORATORIES), 0.08% Pluronic F127 (DOJINDO LABORATORIES), 1.25 mM probenecid (DOJINDO LABORATORIES)) containing a calcium indicator was added at 30 μL/well. The cells were left standing in the incubator at 37° C., 5% CO2 for 30 min, and further left standing at room temperature for 30 min. A test compound prepared by diluting with assay buffer B (HBSS (Invitrogen), 20 mM HEPES (Invitrogen), 0.1% BSA) containing 2.4-3.2 nM acetylcholine was added at 10 μL/well, and the fluorescence was measured by FLIPRtetra (Molecular Devices) for 1 min every 1 second. With the definition that the amount of change in the fluorescence on addition of acetylcholine (final concentration 1 μM) is 100% and that on addition of DMSO instead of a test compound is 0%, the activity (%) of the test compound was calculated, and the inflection point in the concentration-dependent curve of the test compound was calculated as IP values.

With `Cc1cc2c(cc1Cc1ccc(-c3cn(C)nn3)cc1)C(=O)N([C@H]1CCC[C@@H]1O)C2` (racemic) [Example 48, rac-2-(trans-2-hydroxycyclopentyl)-5-methyl-6-(4-(1-methyl-1H-1,2,3-triazol-4-yl)benzyl)isoindolin-1-one], the “activity (%) at 10 μM” value amounted to 102% and the EC50 was found to be 31 nM.
The like results for `Cc1cc2c(cc1Cc1ccc(-c3ccn(C)n3)cc1)C(=O)N([C@H]1CCC[C@@H]1O)C2` (racemic) [Example 51, rac-2-(trans-2-hydroxycyclopentyl)-5-methyl-6-(4-(1-methyl-1H-pyrazol-3-yl)benzyl)isoindolin-1-one] were, in that order, 86% and 42 nM.
As to `Cc1cc2c(cc1Cc1ccc(-c3cn(C)nn3)cc1F)C(=O)N([C@H]1CCC[C@@H]1O)C2` (racemic) [Example 53, rac-6-(2-fluoro-4-(1-methyl-1H-1,2,3-triazol-4-yl)benzyl)-2-(trans-2-hydroxycyclopentyl)-5-methylisoindolin-1-one], the “activity (%) at 10 μM” value is given as 103% and the EC50 came to 28 nM.
`Cc1cc2c(cc1Cc1ccc(-c3cn(C)nc3C)cc1)C(=O)N([C@H]1CCC[C@@H]1O)C2` (racemic) [Example 55, rac-6-(4-(1,3-dimethyl-1H-pyrazol-4-yl)benzyl)-2-(trans-2-hydroxycyclopentyl)-5-methylisoindolin-1-one]: the “activity (%) at 10 μM” value is listed as 101% and the EC50 was 98 nM.
Consider `CCc1cc2c(cc1Cc1ccc(-n3cccn3)cc1)C(=O)N([C@H]1CCC[C@@H]1O)C2` (racemic) [Example 59, rac-5-ethyl-2-(trans-2-hydroxycyclopentyl)-6-(4-(1H-pyrazol-1-yl)benzyl)isoindolin-1-one], for which the “activity (%) at 10 μM” value was 100% and the EC50 is 34 nM.
`CCc1cc2c(cc1Cc1ccc(-c3ccn(C)n3)cc1)C(=O)N([C@H]1CCC[C@@H]1O)C2` (racemic) [Example 63, rac-5-ethyl-2-(trans-2-hydroxycyclopentyl)-6-(4-(1-methyl-1H-pyrazol-3-yl)benzyl)isoindolin-1-one]: the “activity (%) at 10 μM” value was 99% and the EC50 was 45 nM.
On to `Cn1cc(-c2ccc(Cc3cc4c(cc3C3CC3)CN([C@H]3CCC[C@@H]3O)C4=O)cc2)nn1` (racemic) [Example 64, rac-5-cyclopropyl-2-(trans-2-hydroxycyclopentyl)-6-(4-(1-methyl-1H-1,2,3-triazol-4-yl)benzyl)isoindolin-1-one], for which the “activity (%) at 10 μM” value was 104% and the EC50 is 22 nM.
For the molecule `Cc1cc2c(cc1Cc1ccc(-c3cnn(C)c3)cc1)C(=O)N([C@H]1CCC[C@@H]1O)C2` (racemic) [Example 67, rac-2-(trans-2-hydroxycyclopentyl)-5-methyl-6-(4-(1-methyl-1H-pyrazol-4-yl)benzyl)isoindolin-1-one], the “activity (%) at 10 μM” value is reported as 93% and the EC50 came out at 26 nM.
In the case of `Cc1c(Cc2ccc(-c3cnn(C)c3)cc2)cc2c(c1C)CN([C@H]1CCC[C@@H]1O)C2=O` (racemic) [Example 69, rac-2-(trans-2-hydroxycyclopentyl)-4,5-dimethyl-6-(4-(1-methyl-1H-pyrazol-4-yl)benzyl)isoindolin-1-one], the “activity (%) at 10 μM” value is 95% and the EC50 stood at 13 nM.
The like results for `Cc1c(Cc2ccc(-c3ccn(C)n3)cc2F)cc2c(c1C)CN([C@H]1CCC[C@@H]1O)C2=O` (racemic) [Example 71, rac-6-(2-fluoro-4-(1-methyl-1H-pyrazol-3-yl)benzyl)-2-(trans-2-hydroxycyclopentyl)-4,5-dimethylisoindolin-1-one] were, in that order, 100% and 56 nM.
For the molecule `Cn1cc(-c2ccc(Cc3cc4c(cc3Cl)CN([C@H]3CCCC[C@@H]3O)C4=O)cc2)cn1` (racemic) [Example 75, rac-5-chloro-2-(trans-2-hydroxycyclohexyl)-6-(4-(1-methyl-1H-pyrazol-4-yl)benzyl)isoindolin-1-one], the “activity (%) at 10 μM” value was 97% and the EC50 is 23 nM.

(Values after patent publication US9315458B2, “Nitrogen-containing heterocyclic compound” (Takeda Pharmaceutical Company Limited, priority 2014, dated 2016).)
